Measurements taken from ChEMBL document CHEMBL4265936, “Pyrazolo[4,3-b]pyrimido[4,5-e][1,4]diazepine derivatives as new multi-targeted inhibitors of Aurora A/B and KDR” (Eur J Med Chem, 2018).
Each block holds one molecule with its values, some of them ahead of it.

What was measured:
Aurora kinase A = molecular target: T1, Aurora kinase A (Homo sapiens, UniProt O14965); assay: Inhibition of Aurora A (unknown origin) using STK S2 as substrate after 40 mins by HTRF assay
T1 sequence (O14965 whole entry): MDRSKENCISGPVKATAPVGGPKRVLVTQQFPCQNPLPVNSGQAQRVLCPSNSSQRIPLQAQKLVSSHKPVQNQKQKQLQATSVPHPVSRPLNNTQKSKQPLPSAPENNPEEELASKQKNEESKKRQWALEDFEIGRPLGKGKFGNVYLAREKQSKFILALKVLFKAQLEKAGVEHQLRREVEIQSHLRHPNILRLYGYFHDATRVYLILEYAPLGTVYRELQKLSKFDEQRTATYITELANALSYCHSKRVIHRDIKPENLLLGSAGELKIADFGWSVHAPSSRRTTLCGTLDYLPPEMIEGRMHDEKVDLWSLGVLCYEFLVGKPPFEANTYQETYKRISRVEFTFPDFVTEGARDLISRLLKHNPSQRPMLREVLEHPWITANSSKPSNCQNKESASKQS

Aurora kinase B = Aurora kinase B (Homo sapiens, UniProt Q96GD4); assay: Inhibition of Aurora B (unknown origin) using STK S2 as substrate after 30 mins by HTRF assay
[1] = molecular target: Vascular endothelial growth factor receptor 2 (Homo sapiens, UniProt P35968); assay: biochemical; format: cell-based, Sf21
Description: Inhibition of recombinant human N-terminal His6-tagged KDR (790 to end residues) expressed in baculovirus infected Sf21 insect cells after 60 mins by ELISA

SNU-5 [2] = assay: Antiproliferative activity against human SNU5 cells after 72 hrs by CCK8 assay; format: functional, cell-based; settings: SNU-5, 72 h
MKN-45 [3] = assay: Antiproliferative activity against human MKN45 cells after 72 hrs by sulforhodamine B assay; format: functional, cell-based; settings: MKN-45, 72 h
MKN-74 [4] = assay: Antiproliferative activity against human MKN74 cells after 72 hrs by sulforhodamine B assay; format: functional, cell-based; settings: MKN-74, 72 h
SGC-7901 [5] = assay: Antiproliferative activity against human SGC7901 cells after 72 hrs by sulforhodamine B assay; format: functional, cell-based; settings: SGC-7901, 72 h
BGC-823 = assay: Antiproliferative activity against human BGC823 cells after 72 hrs by sulforhodamine B assay; format: functional, cell-based; settings: BGC-823, 72 h
[6] = molecular target: Vascular endothelial growth factor receptor 1 (Homo sapiens) (UniProt P17948); assay: Inhibition of recombinant human VEGFR1 at 1000 nM after 60 mins by ELISA relative to control
[7] = molecular target: Vascular endothelial growth factor receptor 1 (Homo sapiens) (UniProt P17948); assay: Inhibition of recombinant human VEGFR1 at 100 nM after 60 mins by ELISA relative to control
[8] = molecular target: Platelet-derived growth factor receptor beta (Homo sapiens) (UniProt P09619); assay: Inhibition of recombinant human PDGFRbeta at 1000 nM after 60 mins by ELISA relative to control
[9] = molecular target: Proto-oncogene tyrosine-protein kinase receptor Ret (Homo sapiens) (UniProt P07949); assay: Inhibition of recombinant human RET at 1000 nM after 60 mins by ELISA relative to control
[10] = molecular target: Platelet-derived growth factor receptor beta (Homo sapiens) (UniProt P09619); assay: Inhibition of recombinant human PDGFRbeta at 100 nM after 60 mins by ELISA relative to control
[11] = molecular target: Proto-oncogene tyrosine-protein kinase receptor Ret (Homo sapiens) (UniProt P07949); assay: Inhibition of recombinant human RET at 100 nM after 60 mins by ELISA relative to control
[12] = molecular target: Epidermal growth factor receptor (Homo sapiens) (UniProt P00533); assay: Inhibition of recombinant human EGFR at 100 nM after 60 mins by ELISA relative to control
[13] = molecular target: Receptor tyrosine-protein kinase erbB-2 (Homo sapiens) (UniProt P04626); assay: Inhibition of recombinant human Erbb2 at 1000 nM after 60 mins by ELISA relative to control
[14] = molecular target: Receptor tyrosine-protein kinase erbB-2 (Homo sapiens) (UniProt P04626); assay: Inhibition of recombinant human Erbb2 at 100 nM after 60 mins by ELISA relative to control
[15] = molecular target: Receptor tyrosine-protein kinase erbB-4 (Homo sapiens) (UniProt Q15303); assay: Inhibition of recombinant human Erbb4 at 1000 nM after 60 mins by ELISA relative to control
[16] = molecular target: Receptor tyrosine-protein kinase erbB-4 (Homo sapiens) (UniProt Q15303); assay: Inhibition of recombinant human Erbb4 at 100 nM after 60 mins by ELISA relative to control
[17] = molecular target: Proto-oncogene tyrosine-protein kinase Src (Homo sapiens) (UniProt P12931); assay: Inhibition of recombinant human c-SRC at 100 nM after 60 mins by ELISA relative to control
[18] = molecular target: Tyrosine-protein kinase ABL1 (Homo sapiens) (UniProt P00519); assay: Inhibition of recombinant human ABL at 100 nM after 60 mins by ELISA relative to control
[19] = molecular target: Insulin-like growth factor 1 receptor (Homo sapiens) (UniProt P08069); assay: Inhibition of recombinant human IGF1R at 1000 nM after 60 mins by ELISA relative to control
[20] = molecular target: Ephrin type-A receptor 2 (Homo sapiens) (UniProt P29317); assay: Inhibition of recombinant human EPHA2 at 100 nM after 60 mins by ELISA relative to control
[21] = molecular target: Insulin-like growth factor 1 receptor (Homo sapiens) (UniProt P08069); assay: Inhibition of recombinant human IGF1R at 100 nM after 60 mins by ELISA relative to control
MKN-74 [22] = assay: Cell cycle arrest in human MKN74 cells assessed as accumulation at G2/M phase after 24 hrs by propidium iodide staining based flow cytometry; format: functional
MKN-45 [23] = assay: Cell cycle arrest in human MKN45 cells assessed as accumulation at G2/M phase after 24 hrs by propidium iodide staining based flow cytometry; format: functional
SGC-7901 [24] = assay: Cell cycle arrest in human SGC7901 cells assessed as accumulation at G2/M phase after 24 hrs by propidium iodide staining based flow cytometry; format: functional
SNU-5 [25] = assay: Cell cycle arrest in human SNU5 cells assessed as accumulation at G2/M phase after 24 hrs by propidium iodide staining based flow cytometry; format: functional
Mus musculus [26] = assay: AUC (0 to t) in ICR mouse at 5 mg/kg, iv administered as single dose by LC-MS analysis; format: ADME, organism-based; settings: in vivo
[27] = Clearance in ICR mouse at 5 mg/kg, iv administered as single dose by LC-MS analysis; format: ADME, organism-based; settings: in vivo
[28] = MRT in ICR mouse at 5 mg/kg, iv administered as single dose by LC-MS analysis; format: ADME, organism-based; settings: in vivo
[29] = Volume of distribution at steady state in ICR mouse at 5 mg/kg, iv administered as single dose by LC-MS analysis; format: ADME, organism-based; settings: in vivo, read-out: Vdss
[30] = Terminal elimination half life in ICR mouse at 5 mg/kg, iv administered as single dose by LC-MS analysis; format: ADME, organism-based; settings: in vivo, read-out: beta t1/2 (converted)
Mus musculus [31] = assay: AUC (0 to t) in ICR mouse at 25 mg/kg, po administered as single dose by LC-MS analysis; format: ADME, organism-based; settings: in vivo
[32] = Cmax in ICR mouse at 25 mg/kg, po administered as single dose by LC-MS analysis; format: ADME, organism-based; parameters: dose 25 mg/kg, route oral; settings: in vivo
[33] = Tmax in ICR mouse at 25 mg/kg, po administered as single dose by LC-MS analysis; format: ADME, organism-based; settings: in vivo
[34] = Terminal elimination half life in ICR mouse at 25 mg/kg, po administered as single dose by LC-MS analysis; format: ADME, organism-based; settings: in vivo, read-out: beta t1/2 (converted)
[35] = Oral bioavailability in ICR mouse at 25 mg/kg administered as single dose by LC-MS analysis; format: ADME, organism-based; settings: in vivo
SNU-5 [36] = assay: Antitumor activity against human SNU5 cells xenografted in nude mouse assessed as delay in tumor growth at 20 mg/kg, po qd for 21 days relative to control; format: functional
Mus musculus [37] = assay: Toxicity in nude mouse xenografted with human SNU5 cells assessed as mortality at 20 mg/kg, po qd for 21 days; format: organism-based; settings: in vivo, 504 h
Mus musculus [38] = assay: Toxicity in nude mouse xenografted with human SNU5 cells assessed as body weight at 20 mg/kg, po qd for 21 days (reference value: 19.6 g); format: organism-based; settings: in vivo, 504 h
[39] = molecular target: Epidermal growth factor receptor (Homo sapiens) (UniProt P00533); settings: at 1000 nM
Description: Inhibition of recombinant human EGFR at 1000 nM after 60 mins by ELISA relative to control

[40] = molecular target: Proto-oncogene tyrosine-protein kinase Src (Homo sapiens) (UniProt P12931); settings: at 1000 nM
Description: Inhibition of recombinant human c-SRC at 1000 nM after 60 mins by ELISA relative to control

[41] = molecular target: Tyrosine-protein kinase ABL1 (Homo sapiens) (UniProt P00519); settings: at 1000 nM
Description: Inhibition of recombinant human ABL at 1000 nM after 60 mins by ELISA relative to control

Sequence of Aurora kinase B (Q96GD4 whole entry): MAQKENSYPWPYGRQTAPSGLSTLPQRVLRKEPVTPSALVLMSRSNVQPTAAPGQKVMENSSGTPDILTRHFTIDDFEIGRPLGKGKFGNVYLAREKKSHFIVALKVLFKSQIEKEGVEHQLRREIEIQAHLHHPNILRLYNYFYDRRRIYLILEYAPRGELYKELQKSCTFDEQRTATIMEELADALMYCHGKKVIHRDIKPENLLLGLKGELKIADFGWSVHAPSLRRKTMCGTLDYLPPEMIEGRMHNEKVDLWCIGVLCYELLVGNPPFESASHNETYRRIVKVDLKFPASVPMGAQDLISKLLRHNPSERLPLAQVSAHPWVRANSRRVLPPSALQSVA
Sequence of Vascular endothelial growth factor receptor 2 (P35968 whole entry): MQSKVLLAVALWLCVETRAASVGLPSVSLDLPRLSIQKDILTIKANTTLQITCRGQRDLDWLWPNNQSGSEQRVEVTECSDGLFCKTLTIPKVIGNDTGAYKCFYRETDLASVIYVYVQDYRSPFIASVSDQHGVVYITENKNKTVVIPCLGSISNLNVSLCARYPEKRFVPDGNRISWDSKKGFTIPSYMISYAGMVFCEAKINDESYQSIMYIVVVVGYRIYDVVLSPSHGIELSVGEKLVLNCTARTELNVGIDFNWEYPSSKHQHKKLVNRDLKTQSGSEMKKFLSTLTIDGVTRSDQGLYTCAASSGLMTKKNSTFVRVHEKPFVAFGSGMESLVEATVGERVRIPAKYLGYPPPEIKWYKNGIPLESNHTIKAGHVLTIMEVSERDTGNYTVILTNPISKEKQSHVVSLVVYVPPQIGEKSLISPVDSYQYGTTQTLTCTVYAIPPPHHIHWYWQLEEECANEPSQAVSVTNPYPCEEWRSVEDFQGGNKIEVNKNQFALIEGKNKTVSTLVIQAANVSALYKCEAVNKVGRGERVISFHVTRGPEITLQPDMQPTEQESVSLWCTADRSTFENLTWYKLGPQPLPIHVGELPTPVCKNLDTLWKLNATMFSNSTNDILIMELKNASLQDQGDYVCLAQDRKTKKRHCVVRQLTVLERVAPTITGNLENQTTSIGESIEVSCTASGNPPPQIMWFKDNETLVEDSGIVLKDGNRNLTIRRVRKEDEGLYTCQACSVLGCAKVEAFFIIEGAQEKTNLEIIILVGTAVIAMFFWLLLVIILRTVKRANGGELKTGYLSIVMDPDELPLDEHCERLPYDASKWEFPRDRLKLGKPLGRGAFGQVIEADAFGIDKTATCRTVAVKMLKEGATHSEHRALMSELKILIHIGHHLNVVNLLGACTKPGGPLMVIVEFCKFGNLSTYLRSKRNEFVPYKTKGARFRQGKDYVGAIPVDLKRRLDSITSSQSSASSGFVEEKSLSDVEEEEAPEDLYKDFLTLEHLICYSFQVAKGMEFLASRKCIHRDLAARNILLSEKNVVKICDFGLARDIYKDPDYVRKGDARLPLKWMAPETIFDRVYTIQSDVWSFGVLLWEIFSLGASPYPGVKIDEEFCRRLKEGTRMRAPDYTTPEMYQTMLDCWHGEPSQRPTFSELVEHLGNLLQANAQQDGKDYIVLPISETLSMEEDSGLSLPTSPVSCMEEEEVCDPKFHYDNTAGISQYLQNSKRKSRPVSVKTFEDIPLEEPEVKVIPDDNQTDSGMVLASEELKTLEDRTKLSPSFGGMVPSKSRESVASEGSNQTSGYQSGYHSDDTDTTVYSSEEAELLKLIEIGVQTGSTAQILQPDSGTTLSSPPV
Sequence of Proto-oncogene tyrosine-protein kinase Src (Homo sapiens) (P12931 2-536 limits assumed): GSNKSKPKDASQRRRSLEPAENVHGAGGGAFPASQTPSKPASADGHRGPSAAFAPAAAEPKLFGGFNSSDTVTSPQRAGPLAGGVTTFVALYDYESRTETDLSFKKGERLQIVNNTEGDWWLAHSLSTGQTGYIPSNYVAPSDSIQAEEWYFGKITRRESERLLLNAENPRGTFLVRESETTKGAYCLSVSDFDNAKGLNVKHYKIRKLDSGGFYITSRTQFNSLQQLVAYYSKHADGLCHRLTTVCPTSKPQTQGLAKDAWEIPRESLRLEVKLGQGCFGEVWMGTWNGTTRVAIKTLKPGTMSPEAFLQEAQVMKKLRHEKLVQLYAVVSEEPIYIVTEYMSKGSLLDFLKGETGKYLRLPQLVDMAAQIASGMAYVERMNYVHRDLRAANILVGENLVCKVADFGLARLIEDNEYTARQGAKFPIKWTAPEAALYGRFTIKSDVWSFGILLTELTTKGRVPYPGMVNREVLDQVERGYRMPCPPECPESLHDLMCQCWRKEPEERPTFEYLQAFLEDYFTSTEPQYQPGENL
Sequence of Receptor tyrosine-protein kinase erbB-2 (Homo sapiens) (P04626 whole entry): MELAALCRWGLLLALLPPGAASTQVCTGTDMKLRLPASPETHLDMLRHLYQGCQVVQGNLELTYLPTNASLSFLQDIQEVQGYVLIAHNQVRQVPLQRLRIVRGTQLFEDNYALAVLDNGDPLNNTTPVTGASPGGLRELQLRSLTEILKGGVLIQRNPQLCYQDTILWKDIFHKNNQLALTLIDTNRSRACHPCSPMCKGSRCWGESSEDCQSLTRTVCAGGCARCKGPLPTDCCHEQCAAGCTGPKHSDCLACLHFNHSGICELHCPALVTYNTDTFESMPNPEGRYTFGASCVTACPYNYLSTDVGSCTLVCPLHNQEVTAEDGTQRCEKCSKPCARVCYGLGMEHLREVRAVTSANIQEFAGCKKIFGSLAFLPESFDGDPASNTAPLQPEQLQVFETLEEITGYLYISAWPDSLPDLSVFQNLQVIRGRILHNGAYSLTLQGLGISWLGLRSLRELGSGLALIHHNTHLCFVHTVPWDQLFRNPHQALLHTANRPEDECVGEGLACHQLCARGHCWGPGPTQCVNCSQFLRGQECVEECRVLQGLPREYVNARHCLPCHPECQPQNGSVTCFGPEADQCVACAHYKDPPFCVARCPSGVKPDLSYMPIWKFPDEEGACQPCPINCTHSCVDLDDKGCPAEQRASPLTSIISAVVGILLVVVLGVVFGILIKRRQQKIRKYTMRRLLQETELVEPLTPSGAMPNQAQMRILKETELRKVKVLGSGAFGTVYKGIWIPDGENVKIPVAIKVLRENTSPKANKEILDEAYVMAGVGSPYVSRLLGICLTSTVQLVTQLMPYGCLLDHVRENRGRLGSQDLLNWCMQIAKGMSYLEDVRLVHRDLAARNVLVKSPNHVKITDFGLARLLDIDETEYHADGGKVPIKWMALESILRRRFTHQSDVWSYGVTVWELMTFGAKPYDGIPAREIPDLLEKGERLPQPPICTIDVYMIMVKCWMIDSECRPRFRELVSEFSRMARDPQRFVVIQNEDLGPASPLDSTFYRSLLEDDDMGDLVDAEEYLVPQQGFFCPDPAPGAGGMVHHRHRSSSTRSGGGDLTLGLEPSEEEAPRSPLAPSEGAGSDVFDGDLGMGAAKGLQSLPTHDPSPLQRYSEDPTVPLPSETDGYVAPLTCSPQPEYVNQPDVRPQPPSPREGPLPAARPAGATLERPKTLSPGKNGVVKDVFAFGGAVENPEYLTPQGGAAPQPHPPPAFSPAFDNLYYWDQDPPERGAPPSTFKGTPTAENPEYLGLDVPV
Sequence of Vascular endothelial growth factor receptor 1 (Homo sapiens) (P17948 whole entry): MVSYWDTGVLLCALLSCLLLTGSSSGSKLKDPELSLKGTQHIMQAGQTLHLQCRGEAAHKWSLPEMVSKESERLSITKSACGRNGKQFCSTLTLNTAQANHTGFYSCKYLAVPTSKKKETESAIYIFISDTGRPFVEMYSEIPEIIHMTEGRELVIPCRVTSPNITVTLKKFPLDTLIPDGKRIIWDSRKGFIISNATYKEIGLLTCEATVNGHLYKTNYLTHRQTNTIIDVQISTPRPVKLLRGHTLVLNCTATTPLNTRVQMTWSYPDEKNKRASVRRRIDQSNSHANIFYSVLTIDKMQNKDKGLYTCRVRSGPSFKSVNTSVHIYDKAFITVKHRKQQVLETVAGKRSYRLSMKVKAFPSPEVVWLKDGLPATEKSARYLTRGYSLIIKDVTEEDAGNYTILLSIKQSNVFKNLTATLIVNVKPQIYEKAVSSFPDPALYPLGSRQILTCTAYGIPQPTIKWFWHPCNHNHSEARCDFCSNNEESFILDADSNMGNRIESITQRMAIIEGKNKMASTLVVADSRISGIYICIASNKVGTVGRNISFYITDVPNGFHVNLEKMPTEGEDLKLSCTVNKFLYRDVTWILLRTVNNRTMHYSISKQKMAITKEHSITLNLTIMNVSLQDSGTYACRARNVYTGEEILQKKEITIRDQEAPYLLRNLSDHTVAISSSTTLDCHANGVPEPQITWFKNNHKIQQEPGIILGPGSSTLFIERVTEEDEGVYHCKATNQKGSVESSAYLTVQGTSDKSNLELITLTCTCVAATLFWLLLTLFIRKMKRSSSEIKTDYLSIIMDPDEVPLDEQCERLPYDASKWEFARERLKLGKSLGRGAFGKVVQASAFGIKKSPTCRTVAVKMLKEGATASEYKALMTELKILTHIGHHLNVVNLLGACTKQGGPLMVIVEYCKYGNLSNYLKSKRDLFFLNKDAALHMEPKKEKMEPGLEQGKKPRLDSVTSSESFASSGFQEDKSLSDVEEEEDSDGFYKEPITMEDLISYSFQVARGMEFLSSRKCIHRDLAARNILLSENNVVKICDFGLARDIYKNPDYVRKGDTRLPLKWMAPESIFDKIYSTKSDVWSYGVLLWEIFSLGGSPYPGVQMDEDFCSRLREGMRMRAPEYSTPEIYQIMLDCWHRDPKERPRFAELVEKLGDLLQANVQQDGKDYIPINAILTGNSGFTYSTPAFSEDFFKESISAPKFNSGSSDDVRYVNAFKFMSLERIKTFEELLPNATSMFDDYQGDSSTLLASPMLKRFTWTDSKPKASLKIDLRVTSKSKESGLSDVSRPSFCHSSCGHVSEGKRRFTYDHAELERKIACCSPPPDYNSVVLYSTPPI

Compound: CSc1ncc2c(n1)Nc1n[nH]c(C)c1N=C2c1cccc(F)c1
IC50 (Aurora kinase A): 167 nM
IC50 (Aurora kinase B): 611 nM
IC50 [1]: 330 nM

Compound: CSc1ncc2c(n1)Nc1n[nH]c(C)c1N=C2c1ccccc1C(F)(F)F
IC50 (Aurora kinase A): 128 nM
IC50 (Aurora kinase B): 307 nM
IC50 [1]: 205 nM

Compound: CSc1ncc2c(n1)Nc1n[nH]c(C)c1N=C2c1ccccc1C
IC50 (Aurora kinase A): 75 nM
IC50 (Aurora kinase B): 610 nM
IC50 [1]: 110 nM

Compound: COc1ccccc1C1=Nc2c(n[nH]c2C)Nc2nc(SC)ncc21
IC50 (Aurora kinase A): 191 nM
IC50 (Aurora kinase B): 2320 nM
IC50 [1]: 102 nM

Compound: COc1cccc2c1C(=O)c1c(O)c3c(c(O)c1C2=O)C[C@@](O)(C(=O)CO)C[C@@H]3O[C@H]1C[C@H](N)[C@H](O)[C@H](C)O1 [DOXORUBICIN]
IC50 (SNU-5 [2]): 237 nM
IC50 (MKN-45 [3]): 127 nM
IC50 (MKN-74 [4]): 204 nM
IC50 (SGC-7901 [5]): 130 nM
IC50 (BGC-823): 405 nM

Compound: Cc1ccc(C2=Nc3c(n[nH]c3C)Nc3nc(N4CCOCC4)ncc32)cc1
IC50 (Aurora kinase A): 46.2 nM
IC50 (Aurora kinase B): 37.6 nM
IC50 [1]: 21.6 nM
inhibition [6]: 28.1%
inhibition [7]: 0%
inhibition [8]: 41%
inhibition [9]: 68.7%
inhibition [10]: 13.2%
inhibition [11]: 28.7%
inhibition [12]: 24.5%
inhibition [13]: 0%
inhibition [14]: 3%
inhibition [15]: 17.5%
inhibition [16]: 12%
inhibition [17]: 0%
inhibition [18]: 0%
inhibition [19]: 26.8%
inhibition [20]: 3.9%
inhibition [21]: 1.4%
IC50 (SNU-5 [2]): 1270 nM
IC50 (MKN-45 [3]): 1260 nM
IC50 (MKN-74 [4]): 3140 nM
IC50 (SGC-7901 [5]): > 10000 nM
IC50 (BGC-823): > 10000 nM
Activity (MKN-74 [22]): Dose-dependent effect
Activity (MKN-45 [23]): Dose-dependent effect
Activity (SGC-7901 [24]): Dose-dependent effect
Activity (SNU-5 [25]): Dose-dependent effect
AUCt (Mus musculus [26]): 4724 ng·mL·h
clearance [27]: 17.3 mL/min/kg
MRT [28]: 1.93 h
Vd [29]: 2.01 L/kg
half-life [30]: 1.53 h
AUCt (Mus musculus [31]): 15335 ng·mL·h
Cmax [32]: 2780 ng/mL
Tmax [33]: 0.5 h
half-life [34]: 3.27 h
bioavailability [35]: 63.8%
T/C (SNU-5 [36]): 61.63%
Activity (Mus musculus [37]): Non-Toxic
Activity (Mus musculus [38]): 18.4 g
inhibition [39]: 37.4%
inhibition [40]: 32%
inhibition [41]: 0%

The remaining lines, values ahead:

IC50 (Aurora kinase A): 108 nM
IC50 (Aurora kinase B): 86 nM
IC50 [1]: 24.7 nM
Compound: Cc1ccc(C2=Nc3c(n[nH]c3C)Nc3nc(N4CCN(C)CC4)ncc32)cc1

IC50 (Aurora kinase A): 183 nM
IC50 (Aurora kinase B): 1620 nM
IC50 [1]: 318 nM
Compound: CSc1ncc2c(n1)Nc1n[nH]c(C)c1N=C2c1ccc(Cl)cc1

IC50 (Aurora kinase A): 77.6 nM
IC50 (Aurora kinase B): 50.3 nM
IC50 [1]: 30 nM
Compound: Cc1ccc(C2=Nc3c(n[nH]c3C)Nc3nc(N4CCCCC4)ncc32)cc1

IC50 (Aurora kinase A): 102 nM
IC50 (Aurora kinase B): 1000 nM
IC50 [1]: 141 nM
Compound: CSc1ncc2c(n1)Nc1n[nH]c(C)c1N=C2c1cccc(Cl)c1

IC50 (Aurora kinase A): 423 nM
IC50 (Aurora kinase B): 854 nM
IC50 [1]: 209 nM
Compound: CSc1ncc2c(n1)Nc1n[nH]c(C)c1N=C2c1ccc(C(F)(F)F)cc1
